Source: ChEMBL document CHEMBL3885861, “Open TG-GATES”
Values joined by “and” are separate entries in the source; they are usually repeats but may differ in a detail not shown here. Equal entries are not always repeated.

Species: Rattus norvegicus
Assay: Open TG-GATES - Regimen: Single
Format: toxicity, organism-based, Sprague-Dawley
Set-up: regimen Single, gender Male, age 6 weeks
Settings: in vivo, po, route gavage; for ALT / AST / BUN / CRE / Ca / Cl / GLC / IP / K / LDH / Na / PL / RALB / TC / TG / TP / A/G / ALP / DBIL / TBIL / gamma-GTP: tissue Plasma; for APTT / Bas / Eos / Fbg / Hb / Ht / Lym / MCH / MCHC / MCV / Mono / Neu / PT / Plat / RBC / Ret / WBC: tissue Blood; for KIDNEY_L / KIDNEY_R / KIDNEY_TOTAL: tissue Kidney; for LIVER: tissue Liver
[1] = 0 mg/kg, 24 h, dose level Control

With O=C1CN(/N=C/c2ccc([N+](=O)[O-])o2)C(=O)N1 [NITROFURANTOIN] the ALT [1] was 40.2 IU/L and 32.2 IU/L, the AST [1] was 67 IU/L and 61.8 IU/L and the BUN [1] was 15.6 mg/dL and 16 mg/dL. For the same molecule, the CRE [1] was 0.4 mg/dL, the Ca [1] was 10.9 mg/dL and 11.3 mg/dL and the Cl [1] was 101.4 meq/L and 105.8 meq/L. For the same molecule, the GLC [1] was 211.2 mg/dL and 198.2 mg/dL, the IP [1] was 7.6 mg/dL and 9.2 mg/dL and the K [1] was 4 meq/L and 4.4 meq/L. The LDH [1] was 161.6 IU/L and 69.4 IU/L, the Na [1] was 140 meq/L and 141 meq/L and the PL [1] was 149.8 mg/dL and 148.2 mg/dL. The RALB [1] was 3.2 g/dL and 3.9 g/dL, the TC [1] was 76.4 mg/dL and 80.6 mg/dL and the TG [1] was 110 mg/dL and 123 mg/dL. The TP [1] was 5.6 g/dL and 5.5 g/dL, the TERMINAL_BW (10 mg/kg, 3 h, dose level Low) was 221.7 g and the APTT (10 mg/kg, 3 h, dose level Low) was 20.2 s. It also gave a Bas (10 mg/kg, 3 h, dose level Low) of 0%, an Eos (10 mg/kg, 3 h, dose level Low) of 1.2% and a Fbg (10 mg/kg, 3 h, dose level Low) of 216.6 mg/dL. For the same molecule, the Hb (10 mg/kg, 3 h, dose level Low) was 13.5 g/dL, the Ht (10 mg/kg, 3 h, dose level Low) was 38.5% and the Lym (10 mg/kg, 3 h, dose level Low) was 77%. The MCH (10 mg/kg, 3 h, dose level Low) was 21.5 pg, the MCHC (10 mg/kg, 3 h, dose level Low) was 35.1% and the MCV (10 mg/kg, 3 h, dose level Low) was 61.3 fL. The Mono (10 mg/kg, 3 h, dose level Low) was 3%, the Neu (10 mg/kg, 3 h, dose level Low) was 17.4% and the PT (10 mg/kg, 3 h, dose level Low) was 12.5 s. It also gave a Plat (10 mg/kg, 3 h, dose level Low) of 112.9 x10_4/uL, an RBC (10 mg/kg, 3 h, dose level Low) of 628.8 x10_4/ul and a Ret (10 mg/kg, 3 h, dose level Low) of 7.4%. The WBC (10 mg/kg, 3 h, dose level Low) was 88.6 x10_2/uL, the KIDNEY_L (10 mg/kg, 3 h, dose level Low) was 1 g and the KIDNEY_R (10 mg/kg, 3 h, dose level Low) was 1 g. The KIDNEY_TOTAL (10 mg/kg, 3 h, dose level Low) was 2 g, the LIVER (10 mg/kg, 3 h, dose level Low) was 10.3 g and the A/G (10 mg/kg, 3 h, dose level Low) was 1.6. The ALP (10 mg/kg, 3 h, dose level Low) was 999 IU/L, the ALT (10 mg/kg, 3 h, dose level Low) was 42.2 IU/L and the AST (10 mg/kg, 3 h, dose level Low) was 69.6 IU/L. The BUN (10 mg/kg, 3 h, dose level Low) was 12.2 mg/dL, the CRE (10 mg/kg, 3 h, dose level Low) was 0.3 mg/dL and the Ca (10 mg/kg, 3 h, dose level Low) was 10.8 mg/dL. For the same molecule, the Cl (10 mg/kg, 3 h, dose level Low) was 101.8 meq/L, the DBIL (10 mg/kg, 3 h, dose level Low) was 0.076 mg/dL and the GLC (10 mg/kg, 3 h, dose level Low) was 194.8 mg/dL. It also gave an IP (10 mg/kg, 3 h, dose level Low) of 8.7 mg/dL, a K (10 mg/kg, 3 h, dose level Low) of 3.9 meq/L and an LDH (10 mg/kg, 3 h, dose level Low) of 198.6 IU/L. The Na (10 mg/kg, 3 h, dose level Low) was 141 meq/L, the PL (10 mg/kg, 3 h, dose level Low) was 141.2 mg/dL and the RALB (10 mg/kg, 3 h, dose level Low) was 3.3 g/dL. The TBIL (10 mg/kg, 3 h, dose level Low) was 0.1 mg/dL, the TC (10 mg/kg, 3 h, dose level Low) was 81 mg/dL and the TG (10 mg/kg, 3 h, dose level Low) was 67.4 mg/dL. The TP (10 mg/kg, 3 h, dose level Low) was 5.4 g/dL, the gamma-GTP (10 mg/kg, 3 h, dose level Low) was 0.8 IU/L and the TERMINAL_BW (10 mg/kg, 6 h, dose level Low) was 217.9 g. The APTT (10 mg/kg, 6 h, dose level Low) was 19.4 s, the Bas (10 mg/kg, 6 h, dose level Low) was 0% and the Eos (10 mg/kg, 6 h, dose level Low) was 1%. The Fbg (10 mg/kg, 6 h, dose level Low) was 222.2 mg/dL, the Hb (10 mg/kg, 6 h, dose level Low) was 13.6 g/dL and the Ht (10 mg/kg, 6 h, dose level Low) was 38.4%. For the same molecule, the Lym (10 mg/kg, 6 h, dose level Low) was 76.2%, the MCH (10 mg/kg, 6 h, dose level Low) was 21.6 pg and the MCHC (10 mg/kg, 6 h, dose level Low) was 35.3%. The MCV (10 mg/kg, 6 h, dose level Low) was 61 fL, the Mono (10 mg/kg, 6 h, dose level Low) was 2.8% and the Neu (10 mg/kg, 6 h, dose level Low) was 18.4%. For the same molecule, the PT (10 mg/kg, 6 h, dose level Low) was 12.7 s, the Plat (10 mg/kg, 6 h, dose level Low) was 121.4 x10_4/uL and the RBC (10 mg/kg, 6 h, dose level Low) was 629.8 x10_4/ul. The Ret (10 mg/kg, 6 h, dose level Low) was 7.6%, the WBC (10 mg/kg, 6 h, dose level Low) was 96.2 x10_2/uL and the KIDNEY_L (10 mg/kg, 6 h, dose level Low) was 1 g. The KIDNEY_R (10 mg/kg, 6 h, dose level Low) was 1 g, the KIDNEY_TOTAL (10 mg/kg, 6 h, dose level Low) was 2 g and the LIVER (10 mg/kg, 6 h, dose level Low) was 9.9 g. It also gave an A/G (10 mg/kg, 6 h, dose level Low) of 1.7, an ALP (10 mg/kg, 6 h, dose level Low) of 930.6 IU/L and an ALT (10 mg/kg, 6 h, dose level Low) of 32 IU/L. The AST (10 mg/kg, 6 h, dose level Low) was 61 IU/L, the BUN (10 mg/kg, 6 h, dose level Low) was 11.4 mg/dL and the CRE (10 mg/kg, 6 h, dose level Low) was 0.4 mg/dL. It also gave a Ca (10 mg/kg, 6 h, dose level Low) of 10.7 mg/dL, a Cl (10 mg/kg, 6 h, dose level Low) of 102.8 meq/L and a DBIL (10 mg/kg, 6 h, dose level Low) of 0.088 mg/dL. The GLC (10 mg/kg, 6 h, dose level Low) was 194.2 mg/dL, the IP (10 mg/kg, 6 h, dose level Low) was 8.8 mg/dL and the K (10 mg/kg, 6 h, dose level Low) was 4.2 meq/L. For the same molecule, the LDH (10 mg/kg, 6 h, dose level Low) was 175.8 IU/L, the Na (10 mg/kg, 6 h, dose level Low) was 140.6 meq/L and the PL (10 mg/kg, 6 h, dose level Low) was 140.8 mg/dL. The RALB (10 mg/kg, 6 h, dose level Low) was 3.5 g/dL, the TBIL (10 mg/kg, 6 h, dose level Low) was 0.1 mg/dL and the TC (10 mg/kg, 6 h, dose level Low) was 75 mg/dL. The TG (10 mg/kg, 6 h, dose level Low) was 77.6 mg/dL, the TP (10 mg/kg, 6 h, dose level Low) was 5.5 g/dL and the gamma-GTP (10 mg/kg, 6 h, dose level Low) was 0.6 IU/L. The TERMINAL_BW (10 mg/kg, 9 h, dose level Low) was 215.9 g, the APTT (10 mg/kg, 9 h, dose level Low) was 18.5 s and the Bas (10 mg/kg, 9 h, dose level Low) was 0%. The Eos (10 mg/kg, 9 h, dose level Low) was 1%, the Fbg (10 mg/kg, 9 h, dose level Low) was 226.2 mg/dL and the Hb (10 mg/kg, 9 h, dose level Low) was 13.3 g/dL. For the same molecule, the Ht (10 mg/kg, 9 h, dose level Low) was 37.5%, the Lym (10 mg/kg, 9 h, dose level Low) was 79.6% and the MCH (10 mg/kg, 9 h, dose level Low) was 21.9 pg. For the same molecule, the MCHC (10 mg/kg, 9 h, dose level Low) was 35.5%, the MCV (10 mg/kg, 9 h, dose level Low) was 61.8 fL and the Mono (10 mg/kg, 9 h, dose level Low) was 2.6%. For the same molecule, the Neu (10 mg/kg, 9 h, dose level Low) was 15.8%, the PT (10 mg/kg, 9 h, dose level Low) was 12.7 s and the Plat (10 mg/kg, 9 h, dose level Low) was 112.8 x10_4/uL. It also gave an RBC (10 mg/kg, 9 h, dose level Low) of 607 x10_4/ul, a Ret (10 mg/kg, 9 h, dose level Low) of 7.3% and a WBC (10 mg/kg, 9 h, dose level Low) of 86.5 x10_2/uL. It also gave a KIDNEY_L (10 mg/kg, 9 h, dose level Low) of 1 g, a KIDNEY_R (10 mg/kg, 9 h, dose level Low) of 1 g and a KIDNEY_TOTAL (10 mg/kg, 9 h, dose level Low) of 2 g. The LIVER (10 mg/kg, 9 h, dose level Low) was 9.4 g, the A/G (10 mg/kg, 9 h, dose level Low) was 1.6 and the ALP (10 mg/kg, 9 h, dose level Low) was 712.8 IU/L. For the same molecule, the ALT (10 mg/kg, 9 h, dose level Low) was 32.2 IU/L, the AST (10 mg/kg, 9 h, dose level Low) was 56.2 IU/L and the BUN (10 mg/kg, 9 h, dose level Low) was 10.2 mg/dL. The CRE (10 mg/kg, 9 h, dose level Low) was 0.3 mg/dL, the Ca (10 mg/kg, 9 h, dose level Low) was 10.4 mg/dL and the Cl (10 mg/kg, 9 h, dose level Low) was 103 meq/L. For the same molecule, the DBIL (10 mg/kg, 9 h, dose level Low) was 0.068 mg/dL, the GLC (10 mg/kg, 9 h, dose level Low) was 197.2 mg/dL and the IP (10 mg/kg, 9 h, dose level Low) was 9.4 mg/dL. For the same molecule, the K (10 mg/kg, 9 h, dose level Low) was 3.8 meq/L, the LDH (10 mg/kg, 9 h, dose level Low) was 205.2 IU/L and the Na (10 mg/kg, 9 h, dose level Low) was 140.6 meq/L. For the same molecule, the PL (10 mg/kg, 9 h, dose level Low) was 140 mg/dL, the RALB (10 mg/kg, 9 h, dose level Low) was 3.4 g/dL and the TBIL (10 mg/kg, 9 h, dose level Low) was 0.1 mg/dL. The TC (10 mg/kg, 9 h, dose level Low) was 79.8 mg/dL, the TG (10 mg/kg, 9 h, dose level Low) was 51.2 mg/dL and the TP (10 mg/kg, 9 h, dose level Low) was 5.5 g/dL. The gamma-GTP (10 mg/kg, 9 h, dose level Low) was 0.6 IU/L, the TERMINAL_BW (10 mg/kg, 24 h, dose level Low) was 233.4 g and the APTT (10 mg/kg, 24 h, dose level Low) was 18.6 s. The Bas (10 mg/kg, 24 h, dose level Low) was 0%.
